Test results taken from PubChem BioAssay (NCI).
Where “and” joins values, the source holds several entries; their conditions need not be identical. Equal entries are not always repeated.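 How tested: cells in 96-well plates exposed to compound for 48 hours at five concentrations. GI50 is the concentration that inhibits growth by half. The concentration for full growth arrest is given as TGI.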

How the values were obtained:
Test in all cases: DTP human tumour cell line panel, 48 h
SW-620 colon = system: SW-620 colon
SR leukemia = system: SR leukemia
LOX IMVI melanoma = system: LOX IMVI melanoma
A498 renal = system: A498 renal
RXF 393 renal = system: RXF 393 renal
HL-60(TB) leukemia = system: HL-60(TB) leukemia
SF-295 CNS = system: SF-295 CNS
UO-31 renal = system: UO-31 renal
RPMI-8226 leukemia = system: RPMI-8226 leukemia
OVCAR-4 ovarian = system: OVCAR-4 ovarian

SMILES	GI50 (SW-620 colon)	TGI (SW-620 colon)	GI50 (SR leukemia)	TGI (SR leukemia)	GI50 (LOX IMVI melanoma)	TGI (LOX IMVI melanoma)	GI50 (A498 renal)	TGI (A498 renal)	GI50 (RXF 393 renal)	TGI (RXF 393 renal)	GI50 (HL-60(TB) leukemia)	TGI (HL-60(TB) leukemia)	GI50 (SF-295 CNS)	TGI (SF-295 CNS)	GI50 (UO-31 renal)	TGI (UO-31 renal)	GI50 (RPMI-8226 leukemia)	TGI (RPMI-8226 leukemia)	GI50 (OVCAR-4 ovarian)	TGI (OVCAR-4 ovarian)
CN1CCN(c2ccc(Nc3ncc4cc(C#N)c(=O)n(C5CCCC5)c4n3)cc2)CC1	0.451 µM	> 100 µM	0.661 µM	3.86 µM	0.58 µM	3.51 µM	0.199 µM	2.24 µM	0.477 µM	2.23 µM	0.595 µM	4.2 µM	1.19 µM	> 42.6 µM	0.218 µM	7.03 µM	0.87 µM	5.33 µM	3.08 µM	> 100 µM
C=C1CC[C@@H](C(C)C)C[C@@H]2[C@H]([C@H](O)C[C@]2(C)O)[C@@]2(C)CC[C@@H]1O2	20.6 µM	39.9 µM	14.2 µM	30.9 µM	14.7 µM	27.9 µM	26 µM	42.9 µM	19.6 µM	34.1 µM	22.6 µM	57 µM	14.7 µM	32.3 µM	17.3 µM	31.1 µM	3.38 µM	17.2 µM	14.8 µM	28 µM
OCC(O)CNc1ccnc2cc(Cl)ccc12 (stereo unspecified)	–	> 100 µM	–	> 100 µM	–	> 100 µM	–	> 100 µM	–	> 100 µM	–	> 100 µM	–	> 100 µM	–	> 100 µM	–	> 100 µM	–	> 100 µM
O=C(N/N=C/c1c(Cl)cccc1Cl)c1ccc(C(F)(F)F)nc1Nc1cccc(C(F)(F)F)c1	0.458 µM	> 51.1 µM	0.457 µM	14.4 µM	0.677 µM	11.5 µM	0.603 µM	2.39 µM	–	–	0.552 µM	–	1.16 µM	> 29.2 µM	1.49 µM	5.82 µM	0.375 µM	10.5 µM	0.466 µM	> 100 µM
O=C(NO)c1ccc(CN(c2cnccn2)c2cnccn2)cc1	12.5 µM	33.7 µM	6.22 µM	> 100 µM	3.69 µM	18.1 µM	10.3 µM	28.3 µM	11.5 µM	25.1 µM	26.6 µM	82.7 µM	14.8 µM	33.4 µM	12.9 µM	26.4 µM	8.68 µM	> 100 µM	16.1 µM	97.7 µM
CCCCCc1ccc(S(=O)(=O)Nc2cc(-c3csc(NC(C)=O)n3)ccc2N2CCN(C)CC2)cc1	1.31 µM	4.72 µM	0.929 µM	2.77 µM	0.648 µM	1.35 µM	6.23 µM	11.3 µM	3.66 µM	8 µM	1.37 µM	6.09 µM	4.9 µM	9.59 µM	3.53 µM	7.57 µM	–	–	5.44 µM	10.3 µM
CCCCCCCCCCN1CCC(N2CCCCC2)CC1	1.92 µM	3.97 µM	0.627 µM	2.98 µM	1.23 µM	2.47 µM	9.27 µM	21.7 µM	2.01 µM	7.15 µM	1.1 µM	3.77 µM	1.96 µM	4.2 µM	1 µM	2.8 µM	1.83 µM	5.21 µM	6.61 µM	20.7 µM
O=C(Nc1ccc(Cl)c(Cl)c1)Nc1ccccc1O	5.42 µM	19.5 µM	4.57 µM	24.8 µM	4.58 µM	24.2 µM	12.2 µM	27.2 µM	15 µM	35.6 µM	3.7 µM	36.2 µM	3.06 µM	11.3 µM	2.48 µM	18.4 µM	3.37 µM	32.3 µM	5.44 µM	> 100 µM
O=c1[nH]c(=O)n([C@H]2CCCO2)cc1F	1430 µM	> 5000 µM	473 µM	> 2360 µM	1120 µM	> 5000 µM	> 2170 µM	979 µM and > 5000 µM	1060 µM	> 5000 µM	1030 µM	> 5000 µM	> 4530 µM	> 5000 µM	–	> 5000 µM	666 µM	> 5000 µM	–	> 5000 µM
Cn1c(=O)c2c(ncn2CC(=O)Nc2ccc(-c3ccccc3)nn2)n(C)c1=O	> 100 µM	> 100 µM	42.9 µM	> 100 µM	> 100 µM	> 100 µM	54.1 µM	> 100 µM	48.3 µM	> 100 µM	49.9 µM	> 100 µM	> 100 µM	> 100 µM	> 100 µM	> 100 µM	> 100 µM	> 100 µM	> 100 µM	> 100 µM
COC(C(=O)[C@@H](O)[C@@H](C)O)[C@@H]1Cc2cc3cc(O[C@H]4C[C@@H](O[C@H]5C[C@@H](O)[C@H](O)C(C)O5)[C@H](O)C(C)O4)c(C)c(O)c3c(O)c2C(=O)[C@H]1O[C@H]1C[C@@H](O[C@H]2C[C@@H](O[C@H]3C[C@@H](O)[C@H](OC)C(C)O3)[C@@H](O)C(C)O2)[C@H](O)C(C)O1 (stereo partly specified)	0.0197 µM	> 33.3 µM	–	> 33.3 µM	0.00894 µM	0.0289 µM	0.00614 µM	0.0224 µM	0.034 µM	0.139 µM	0.0651 µM	0.767 µM	0.0141 µM	> 33.3 µM	0.0953 µM	0.934 µM	0.0141 µM	7.13 µM	0.049 µM	> 26.5 µM
CCCCCCCCCCCCOC1C(C(CC(=O)NCCN2CCCC2)NS(=O)(=O)c2cc(Cl)cc(Cl)c2)OC2OC(C)(C)OC21 (stereo unspecified)	1.98 µM	3.63 µM	1.48 µM	3.83 µM	1.9 µM	3.5 µM	2.4 µM	4.79 µM	2.2 µM	4.72 µM	1.64 µM	3.76 µM	1.9 µM	4.69 µM	1.9 µM	3.44 µM	1.23 µM	3.21 µM	2 µM and 1.7 µM	3.7 µM and 3.51 µM
C/C(CCn1[nH]c(=O)ccc1=O)=N\OCCCc1ccccc1	–	> 100 µM	–	> 100 µM	–	> 100 µM	–	> 100 µM	–	> 100 µM	–	> 100 µM	–	> 100 µM	–	> 100 µM	–	> 100 µM	–	> 100 µM
COC(=O)c1cccc2cccc(C(=O)Nc3ccc(Cl)cc3)c12	–	> 66.8 µM	–	50.8 µM	–	> 100 µM	–	> 100 µM	–	> 100 µM	–	22.1 µM	–	> 100 µM	–	> 100 µM	–	33.7 µM	–	> 100 µM
Nc1nc(N)c2cc(CNc3ccc(C(=O)NC(CC(=O)O)C(=O)O)c(Cl)c3)ccc2n1 (stereo unspecified)	0.05 µM	> 500 µM	–	> 500 µM	0.05 µM	> 500 µM	0.05 µM	> 500 µM	> 500 µM	> 500 µM	–	> 500 µM	0.05 µM	> 500 µM	0.244 µM	> 500 µM	2.77 µM	> 500 µM	–	> 500 µM
COc1ccc2c(Oc3ccc(NC(=O)c4c(C)n(CC(C)(C)O)n(-c5ccccc5)c4=O)nc3)ccnc2c1	34.2 µM	> 100 µM	8.57 µM	> 100 µM	10.9 µM	> 100 µM	4.41 µM	85.1 µM	3.38 µM	41.5 µM	14.6 µM	> 62.3 µM	0.654 µM	12.7 µM	4.41 µM	> 100 µM	10.7 µM	> 79.3 µM	10.7 µM	> 90 µM
CC1C(=O)OC2CC[N+]3([O-])CC=C(COC(=O)C(C)(O)C1(C)O)C23 (stereo unspecified)	–	> 100 µM	–	> 100 µM	–	> 100 µM	–	> 100 µM	–	> 100 µM	–	> 100 µM	–	> 100 µM	–	–	–	> 100 µM	–	> 100 µM
CC(O)CC(O)(C(F)(F)F)C(F)(F)F (stereo unspecified)	–	> 10 µM	–	> 10 µM	–	> 10 µM	–	> 10 µM	–	> 10 µM	–	> 10 µM	–	> 10 µM	–	> 10 µM	–	> 10 µM	–	> 10 µM
CC1=CC(=O)C(C(O)(C(F)(F)F)C(F)(F)F)C(C)(C)C1 (stereo unspecified)	–	> 10 µM	–	> 10 µM	–	> 10 µM	–	> 10 µM	–	> 10 µM	–	> 10 µM	–	> 10 µM	–	> 10 µM	–	> 10 µM	–	> 10 µM
O=C(OCc1ccc2c(Cl)cc(Cl)c(O)c2n1)N1CCN(C(=O)c2cc3cc(F)ccc3[nH]2)CC1	0.83 µM	> 100 µM	0.401 µM	> 100 µM	0.453 µM	> 100 µM	0.504 µM	5.48 µM	3.03 µM	> 100 µM	1.06 µM	3.53 µM	9.49 µM	> 100 µM	2.59 µM	> 100 µM	0.48 µM	> 100 µM	5.37 µM	> 100 µM
Cc1ncc([N+](=O)[O-])n1CCNS(=O)(=O)CCCn1ncnc1[N+](=O)[O-]	–	> 100 µM	–	> 100 µM	–	> 100 µM	–	> 100 µM	–	> 100 µM	–	> 100 µM	–	> 100 µM	–	> 100 µM	–	> 100 µM	–	> 100 µM
CC1=C(C(=O)Nc2ccccc2)C(c2ccc(C3C(C(=O)Nc4ccccc4)=C(C)NC(C)=C3C(=O)Nc3ccccc3)cc2)C(C(=O)Nc2ccccc2)=C(C)N1	–	5.56 µM	–	5.41 µM	–	3.24 µM	–	24 µM	–	3.87 µM	–	7.21 µM	–	7.88 µM	–	23.1 µM	–	13.8 µM	–	16.1 µM
COc1ccc(Cc2cnc(NC(=O)c3ccc4c(c3)OCCO4)s2)cc1	0.0338 µM	> 100 µM	0.0114 µM	> 100 µM	0.0456 µM	> 100 µM	0.0159 µM	0.0592 µM	–	–	0.0409 µM	> 100 µM	0.0242 µM	20.8 µM	1.2 µM	> 100 µM	0.0499 µM	> 100 µM	0.0836 µM	> 100 µM
COCOc1ccc(C2(O)Oc3cc(OCOC)ccc3C2C)c(O)c1 (stereo unspecified)	–	32.4 µM	–	75.1 µM	–	34.6 µM	–	28.8 µM	–	31.1 µM	–	44 µM	–	29 µM	–	23.8 µM	–	> 100 µM	–	32.1 µM
C[C@]12CC[C@@H]3c4ccc(O)c([N+](=O)[O-])c4CC[C@H]3[C@@H]1CC[C@@H]2NS(=O)(=O)c1cccc(Br)c1	2.7 µM	9.42 µM	3.09 µM	9.41 µM	–	–	2.06 µM	5.87 µM	2.03 µM	4.21 µM	2.4 µM	6.04 µM	1.68 µM	3.13 µM	2.19 µM	5.63 µM	2.44 µM	6.27 µM	1.47 µM	2.94 µM
CCOC(=O)/C(=C/c1cccc(C#N)c1)N(CC)CC	–	> 100 µM	–	> 100 µM	–	> 100 µM	–	> 100 µM	–	–	–	> 100 µM	–	> 100 µM	–	> 100 µM	–	> 100 µM	–	> 100 µM
N#Cc1ccc(OC(=O)Nc2ccc(Cl)c(Cl)c2)cc1	3.31 µM	> 100 µM	7.67 µM	93.2 µM	–	–	1.44 µM	6.92 µM	7.3 µM	42.2 µM	5.7 µM	30.9 µM	2.54 µM	7.64 µM	2.99 µM	24.8 µM	2.43 µM	6.77 µM	2.24 µM	17.7 µM
C=CCN1CC2CON(C(=O)C(OC)(c3ccccc3)C(F)(F)F)C2C1C(C)C (stereo unspecified)	62.8 mg/L	–	11.1 mg/L	65.1 mg/L	26.6 mg/L	–	23.5 mg/L	92 mg/L	–	–	6.09 mg/L	23.3 mg/L	35.7 mg/L	–	26.3 mg/L	–	9.82 mg/L	41.7 mg/L	67.1 mg/L	–
CC[C@@]1(O)C(=O)OCc2c1cc1n(c2=O)Cc2c-1nc1cc(F)c(C)c3c1c2[C@@H](N)CC3	< 0.01 µM	> 100 µM	< 0.01 µM	> 100 µM	–	–	< 0.01 µM	0.0221 µM	< 0.01 µM	0.0254 µM	< 0.01 µM	–	< 0.01 µM	0.0915 µM	< 0.01 µM	0.108 µM	0.0109 µM	1.58 µM	0.0656 µM	> 100 µM
